Drawing on US11981661B2, “Heterocyclic compounds” (Hoffmann-La Roche Inc., priority 2020, dated 2024), this text covers IC50 for 23 compounds.

In this assay the target is T1, MAGL (Homo sapiens, UniProt Q99685).
T1 sequence (Q99685 1-303): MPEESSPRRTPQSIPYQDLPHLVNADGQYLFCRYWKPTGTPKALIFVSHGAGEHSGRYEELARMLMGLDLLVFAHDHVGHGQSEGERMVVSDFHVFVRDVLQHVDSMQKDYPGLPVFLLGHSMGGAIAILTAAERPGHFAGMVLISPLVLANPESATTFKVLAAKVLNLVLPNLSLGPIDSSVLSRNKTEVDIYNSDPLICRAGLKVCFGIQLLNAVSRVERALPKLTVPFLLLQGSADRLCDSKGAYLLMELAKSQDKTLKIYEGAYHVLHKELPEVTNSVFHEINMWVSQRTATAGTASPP
As to the kind of experiment: 2-AG assay (MAGL inhibitory activity, hydrolysis of 2-arachidonoylglycerol followed by mass spectrometry). Conditions: 50 pM MAGL, 8 μM 2-arachidonoylglycerol, 15 min preincubation, 30 min incubation at RT, concentration range 12.5 μM to 0.8 pM. It is filed as biochemical. Put shortly:
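Activity derived from the arachidonic acid/d8-arachidonic acid MS intensity ratio after acetonitrile quench. Reaction: 8 μM 2-AG substrate with 50 pM MAGL, 30 min at RT, following 15 min RT compound preincubation; buffer 50 mM TRIS, 1 mM EDTA, 0.01% Tween; final compound range 12.5 μM to 0.8 pM.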

On to `O=C1N[C@H](CCC(=O)N2CC(c3cnc(N4CC5(C4)CC(F)(F)C5)cn3)C2)CO1` [Example 139, (4R)-4-[3-[3-[5-(6,6-Difluoro-2-azaspiro[3.3]heptan-2-yl)pyrazin-2-yl]azetidin-1-yl]-3-oxo-propyl]oxazolidin-2-one], for which inhibition was half-maximal at 123 nM (IC50). As for `O=C1N[C@H](CCC(=O)N2CC(c3cnc(N4CC5(CCCC5)C4)cn3)C2)CO1` [Example 140, (4R)-4-[3-[3-[5-(2-Azaspiro[3.4]octan-2-yl)pyrazin-2-yl]azetidin-1-yl]-3-oxo-propyl]oxazolidin-2-one], half-maximal inhibition (IC50) required 28 nM. With `O=C1N[C@H](CCC(=O)N2CC(c3ccc(N4CC5(C4)CC(F)(F)C5)nc3)C2)CO1` [Example 141, (4R)-4-[3-[3-[6-(6,6-Difluoro-2-azaspiro[3.3]heptan-2-yl)-3-pyridyl]azetidin-1-yl]-3-oxo-propyl]oxazolidin-2-one] the figure was 78 nM. The value for `O=C1N[C@H](CCC(=O)N2CC(c3ccc(N4CC5(CCCC5)C4)nc3)C2)CO1` [Example 142, (4R)-4-[3-[3-[6-(2-Azaspiro[3.4]octan-2-yl)-3-pyridyl]azetidin-1-yl]-3-oxo-propyl]oxazolidin-2-one] was 13 nM. With `O=C1N[C@H](CCC(=O)N2CC3(CCN(S(=O)(=O)c4ccc(C(F)(F)F)cc4F)CC3)C2)CO1` [Example 143, (4R)-4-[3-[7-[2-Fluoro-4-(trifluoromethyl)phenyl]sulfonyl-2,7-diazaspiro [3.5]nonan-2-yl]-3-oxo-propyl]oxazolidin-2-one] the figure was 190 nM; with `O=C1N[C@H](CCC(=O)N2CC(c3ccc(N4CC(O)(C(F)(F)F)C4)nc3)C2)CO1` [Example 144, (4R)-4-[3-[3-[6-[3-Hydroxy-3-(trifluoro-methyl)azetidin-1-yl]-3-pyridyl]azetidin-1-yl]-3-oxo-propyl]oxazolidin-2-one], 172 nM; with `Cc1cc(C)n(-c2ccc(C3CN(C(=O)CC[C@@H]4COC(=O)N4)C3)cc2)n1` [Example 145, (4R)-4-[3-[3-[4-(3,5-Dimethyl-pyrazol-1-yl)phenyl]azetidin-1-yl]-3-oxo-propyl]oxazolidin-2-one], 73 nM. Turning to `O=C1N[C@H](CCC(=O)N2CC(c3ccc(N4CCC(O)(C(F)(F)F)C4)nc3)C2)CO1` (stereo partly drawn) [Example 146, (4R)-4-[3-[3-[6-[3-Hydroxy-3-(trifluoro-methyl)pyrrolidin-1-yl]-3-pyridyl]azetidin-1-yl]-3-oxo-propyl] oxazolidin-2-one], the midpoint of inhibition, the IC50, lay at 137 nM. Compared with the last compound, the IC50 is about 1.9-fold higher. Consider `O=C1N[C@H](CCC(=O)N2CC3(C2)CN(S(=O)(=O)c2ccc(C(F)(F)F)cc2)C3)CO1` [Example 147, (4R)-4-[3-Oxo-3-[2-[4-(trifluoromethyl)phenyl]sulfonyl-2,6-diazaspiro [3.3]heptan-6-yl]propyl] oxazolidin-2-one], for which the concentration for half-maximal inhibition (IC50) (as a rule, the midpoint of a concentration-inhibition curve) was determined as 2270 nM. With `O=C1N[C@H](CCC(=O)N2CC3(C2)CN(S(=O)(=O)c2ccccc2OC(F)(F)F)C3)CO1` [Example 148, (4R)-4-[3-Oxo-3-[2-[2-(trifluoro-methoxy)phenyl]sulfonyl-2,6-diazaspiro[3.3]heptan-6-yl]propyl]oxazolidin-2-one] the figure was 498 nM; with `O=C1N[C@H](CCC(=O)N2CC3(C2)CN(S(=O)(=O)c2cccc(OC(F)(F)F)c2)C3)CO1` [Example 149, (4R)-4-[3-Oxo-3-[2-[3-(trifluoro-methoxy)phenyl]sulfonyl-2,6-diazaspiro[3.3]heptan-6-yl]propyl]oxazolidin-2-one], 976 nM; with `O=C1N[C@H](CCC(=O)N2CC3(C2)CN(S(=O)(=O)c2ccc(OC(F)(F)F)cc2)C3)CO1` [Example 150, (4R)-4-[3-Oxo-3-[2-[4-(trifluoro-methoxy)phenyl]sulfonyl-2,6-diazaspiro[3.3]heptan-6-yl]propyl] oxazolidin-2-one], 2140 nM. The value for `O=C1N[C@H](CCC(=O)N2CC3(CC(Nc4ccc(C(F)(F)F)nn4)C3)C2)CO1` [Example 151, (4R)-4-[3-Oxo-3-[6-[[6-(trifluoro-methyl)pyridazin-3-yl]amino]-2-azaspiro[3.3]heptan-2-yl]propyl] oxazolidin-2-one] was 1240 nM; that for `O=C1N[C@H](CCC(=O)N2CC3(CC(Oc4ccc(C(F)(F)F)nn4)C3)C2)CO1` [Example 152, (4R)-4-[3-Oxo-3-[6-[6-(trifluoro-methyl)pyridazin-3-yl]oxy-2-azaspiro[3.3]heptan-2-yl]propyl] oxazolidin-2-one] was 1410 nM. The value for `NS(=O)(=O)c1ccccc1CN1CC2(C1)CN(C(=O)CC[C@@H]1COC(=O)N1)C2` [Example 153, 2-[[2-[3-[(4R)-2-Oxooxazolidin-4-yl]propanoyl]-2,6-diazaspiro[3.3]heptan-6-yl]methyl]benzene-sulfonamide] was 2330 nM. For the compound `O=C1N[C@H](CCC(=O)N2CC3(CC(NS(=O)(=O)c4cccc(C(F)(F)F)c4)C3)C2)CO1` [Example 154, N-[2-[3-[(4R)-2-Oxooxazolidin-4-yl]propanoyl]-2-azaspiro[3.3]heptan-6-yl]-3-(trifluoromethyl) benzene-sulfonamide], the IC50 turned out to be 95 nM. This IC50 lies about 25-fold lower than the previous one. The value for `O=C1N[C@H](CCC(=O)N2CC(NCc3ccc(C(F)(F)F)cc3)C2)CO1` [Example 155, (4R)-4-[3-Oxo-3-[3-[[4-(trifluoromethyl)phenyl]methyl-amino]azetidin-1-yl]propyl] oxazolidin-2-one] was 284 nM; that for `O=C1N[C@H](CCC(=O)N2CC(NCc3cc(C(F)(F)F)ccc3F)C2)CO1` [Example 156, (4R)-4-[3-[3-[[2-Fluoro-5-(trifluoro-methyl)phenyl]methylamino]azetidin-1-yl]-3-oxo-propyl] oxazolidin-2-one] was 279 nM; that for `CS(=O)(=O)c1cc(F)ccc1CC1CC2(C1)CN(C(=O)CC[C@@H]1COC(=O)N1)C2` [Example 157, (4R)-4-[3-[6-[(4-Fluoro-2-methylsulfonyl-phenyl)methyl]-2-azaspiro[3.3]heptan-2-yl]-3-oxo-propyl]oxazolidin-2-one] was 25 nM. The value for `O=C1N[C@H](CCC(=O)N2CCC(CNS(=O)(=O)c3ccc(C(F)(F)F)cc3)CC2)CO1` [Example 158, N-[[1-[3-[(4R)-2-Oxooxazolidin-4-yl]propanoyl]-4-piperidyl]methyl]-4-(trifluoro-methyl)benzene-sulfonamide] was 582 nM. With `O=C1N[C@H](CCC(=O)N2CCC(CNS(=O)(=O)c3ccc(OC(F)(F)F)cc3)CC2)CO1` [Example 159, N-[[1-[3-[(4R)-2-Oxooxazolidin-4-yl]propanoyl]-4-piperidyl]methyl]-4-(trifluoro-methoxy)benzene-sulfonamide] the figure was 434 nM; with `CC1(O)CN(c2ccc(C3CN(C(=O)CC[C@@H]4COC(=O)N4)C3)cn2)C1` [Example 160, (4R)-4-[3-[3-[6-(3-Hydroxy-3-methyl-azetidin-1-yl)-3-pyridyl]azetidin-1-yl]-3-oxo-propyl]oxazolidin-2-one], 1330 nM. For `O=C1N[C@H](CCC(=O)N2CC(c3ccc(N4CC(C(F)(F)F)C4)nc3)C2)CO1` [Example 161, (4R)-4-[3-Oxo-3-[3-[6-[3-(trifluoro-methyl)azetidin-1-yl]-3-pyridyl]azetidin-1-yl]propyl]oxazolidin-2-one], it took 65 nM to reach half-maximal inhibition (IC50).
